In ChEMBL document CHEMBL1152369, “Unsymmetrical non-adamantyl N,N'-diaryl urea and amide inhibitors of soluble expoxide hydrolase” (Bioorg Med Chem Lett, 2009):

Tests used:
[1] = target: T1, Bifunctional epoxide hydrolase 2 (Homo sapiens, UniProt P34913); assay: Inhibition of human soluble epoxide hydrolase by fluorescent endpoint assay
T1 sequence (P34913 whole entry): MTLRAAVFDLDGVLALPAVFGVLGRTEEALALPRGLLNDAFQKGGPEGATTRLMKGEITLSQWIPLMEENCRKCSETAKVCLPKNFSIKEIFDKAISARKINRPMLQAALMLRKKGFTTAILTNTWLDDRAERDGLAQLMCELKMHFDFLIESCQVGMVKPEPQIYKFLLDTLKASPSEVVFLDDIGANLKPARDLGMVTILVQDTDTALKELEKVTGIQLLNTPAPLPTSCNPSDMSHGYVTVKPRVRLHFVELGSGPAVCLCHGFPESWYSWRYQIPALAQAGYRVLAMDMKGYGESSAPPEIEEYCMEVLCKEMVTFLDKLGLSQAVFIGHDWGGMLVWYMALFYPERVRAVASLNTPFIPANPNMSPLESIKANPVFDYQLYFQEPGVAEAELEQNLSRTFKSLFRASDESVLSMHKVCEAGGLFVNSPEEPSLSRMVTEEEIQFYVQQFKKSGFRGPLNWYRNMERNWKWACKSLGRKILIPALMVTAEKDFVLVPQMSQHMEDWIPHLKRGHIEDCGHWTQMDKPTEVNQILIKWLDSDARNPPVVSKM

[2] = AUC (0 to 24 hrs) in Sprague-Dawley rat at 5 mg/kg, po by LC/MS/MS analysis; format: ADME, organism-based; design: time < 24 hr, dose 5 mg/kg, route oral; details: plasma
[3] = Cmax in Sprague-Dawley rat at 5 mg/kg, po by LC/MS/MS analysis; format: ADME, organism-based; design: dose 5 mg/kg, route oral; details: in vivo

Row | IC50 [1] | AUC(0-t) at 24 h [2] | Cmax [3] | Structure (SMILES)
1 | 1.5 nM |  |  | O=C(Nc1ccc(Cl)cc1)Nc1ccc(OCCCN2CCOCC2)cc1
2 | 365 nM |  |  | O=C(Cc1ccc2c(c1)OCO2)Nc1cccc(OCCCN2CCOCC2)c1
3 | 43 nM |  |  | O=C(Cc1ccc(OC(F)(F)F)cc1)Nc1cccc(OCCCN2CCOCC2)c1
4 | 6.6 nM |  |  | O=C(CC12CC3CC(CC(C3)C1)C2)Nc1ccc(F)c(OCCCN2CCOCC2)c1
5 | 156 nM |  |  | O=C(Cc1ccc(C(F)(F)F)cc1)Nc1ccc(F)c(OCCCN2CCOCC2)c1
6 | 145 nM |  |  | O=C(Cc1ccc(OC(F)(F)F)cc1)Nc1ccc(F)c(OCCCN2CCOCC2)c1
7 | 121 nM |  |  | O=C(Nc1cccc(OCCCN2CCOCC2)c1)Nc1ccc(F)cc1F
8 | 40 nM |  |  | O=C(Nc1ccc(F)cc1)Nc1ccc(F)c(OCCCN2CCOCC2)c1
9 | 2.5 nM |  |  | O=C(NC1CCCC(OCCCN2CCOCC2)C1)NC12CC3CC(CC(C3)C1)C2 (stereo not drawn)
10 | 1.3 nM |  |  | O=C(Nc1ccc(C(F)(F)F)cc1)Nc1ccc(F)c(OCCCN2CCOCC2)c1
11 | 14000 nM |  |  | O=C(Cc1cccnc1)Nc1cccc(OCCCN2CCOCC2)c1
12 | 4.8 nM |  |  | O=C(Nc1ccc(Cl)cc1)Nc1ccc(F)c(OCCCN2CCOCC2)c1
13 | 8 nM |  |  | O=C(Nc1ccc(OC(F)(F)F)cc1)Nc1cccc(OCCCN2CCOCC2)c1
14 | 2 nM | 9 ng·h/mL | 6 ng/mL | O=C(Nc1ccc(Cl)cc1)Nc1cccc(OCCCN2CCOCC2)c1
15 | 5000 nM |  |  | O=C(Nc1cccnc1)Nc1cccc(OCCCN2CCOCC2)c1
16 | 140 nM |  |  | O=C(Cc1ccc(Cl)cc1)Nc1ccc(OCCCN2CCOCC2)cc1
17 | 39 nM |  |  | O=C(Nc1ccccc1)Nc1ccc(OCCCN2CCOCC2)cc1
18 | 116 nM |  |  | O=C(Cc1ccc(Cl)cc1)Nc1cccc(OCCCN2CCOCC2)c1
19 | 1 nM | 8 ng·h/mL | 5 ng/mL | O=C(Nc1ccc(C(F)(F)F)cc1)Nc1cccc(OCCCN2CCOCC2)c1
20 | 1.3 nM |  |  | O=C(CC12CC3CC(CC(C3)C1)C2)Nc1ccc(OCCCN2CCOCC2)cc1
21 | 1880 nM |  |  | O=C(Nc1cccc(OCCCN2CCOCC2)c1)Nc1c(F)cc(F)cc1F
22 | 42 nM |  |  | O=C(Cc1ccc(OC(F)(F)F)cc1)Nc1ccc(OCCCN2CCOCC2)cc1

Row | IC50 [1] | AUC(0-t) at 24 h [2] | Cmax [3] | Structure (SMILES)
23 | 1550 nM |  |  | CC(C)(C)CC(=O)Nc1cccc(OCCCN2CCOCC2)c1
24 | 13.8 nM |  |  | O=C(Nc1cccc(OCCCN2CCOCC2)c1)Nc1cccc(C(F)(F)F)c1
25 | 54 nM |  |  | O=C(Cc1ccc(C(F)(F)F)cc1)Nc1ccc(OCCCN2CCOCC2)cc1
26 |  | 131 ng·h/mL | 102 ng/mL | O=C(Nc1cccc(OCCCN2CCOCC2)c1)NC1CCCCC1
27 | 0.8 nM |  |  | O=C(Nc1ccc(F)c(OCCCN2CCOCC2)c1)NC12CC3CC(CC(C3)C1)C2
28 | 5.4 nM | 863 ng·h/mL | 669 ng/mL | O=C(Nc1ccc(OCCCN2CCOCC2)cc1)NC1CCCCC1
29 | 5.2 nM |  |  | O=C(CC12CC3CC(CC(C3)C1)C2)NC1CCCC(OCCCN2CCOCC2)C1 (stereo not drawn)
30 | 81 nM |  |  | O=C(Nc1ccccc1)Nc1ccc(F)c(OCCCN2CCOCC2)c1
31 | 14 nM | 491 ng·h/mL | 123 ng/mL | O=C(Nc1ccc(F)cc1)Nc1cccc(OCCCN2CCOCC2)c1
32 | 1040 nM |  |  | CC(C)(C)NC(=O)Nc1cccc(OCCCN2CCOCC2)c1
33 | 6.5 nM |  |  | O=C(Nc1ccc(F)c(OCCCN2CCOCC2)c1)NC1CCCCC1
34 | 550 nM | 57 ng·h/mL | 48 ng/mL | O=C(Cc1ccc(F)cc1)Nc1cccc(OCCCN2CCOCC2)c1
35 | 321 nM |  |  | O=C(Cc1ccc(F)c(F)c1)Nc1cccc(OCCCN2CCOCC2)c1
36 | 10000 nM |  |  | O=C(Nc1cccc(OCCCN2CCOCC2)c1)Nc1c(Cl)cccc1Cl
37 | 33 nM | 753 ng·h/mL | 218 ng/mL | O=C(Nc1cccc(OCCCN2CCOCC2)c1)Nc1ccc2c(c1)OCO2
38 | 0.8 nM |  |  | O=C(Nc1ccc(OCCCN2CCOCC2)cc1)Nc1ccc(OC(F)(F)F)cc1
39 | 0.8 nM | 1050 ng·h/mL | 263 ng/mL | O=C(Nc1ccc(OCCCN2CCOCC2)cc1)Nc1ccc(C(F)(F)F)cc1
40 | 38 nM | 3570 ng·h/mL | 1570 ng/mL | O=C(Nc1ccccc1)Nc1cccc(OCCCN2CCOCC2)c1
41 | 240 nM |  |  | CN(C)c1cccc(NC(=O)Nc2cccc(OCCCN3CCOCC3)c2)c1
42 | 0.8 nM |  |  | O=C(Nc1ccc(OC(F)(F)F)cc1)Nc1ccc(F)c(OCCCN2CCOCC2)c1
43 | 11 nM | 3 ng·h/mL | 3 ng/mL | O=C(Nc1cccc(OCCCN2CCOCC2)c1)Nc1ccc(F)c(F)c1
44 | 870 nM |  |  | O=C(Cc1ccccc1)Nc1ccc(OCCCN2CCOCC2)cc1
